Here are results for eight compounds from PubChem BioAssay (NCI).

Structures are written as SMILES. Where “and” joins values, the source holds several entries; their conditions need not be identical. Equal values may be shown once.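 Step 1: Grow cells in 96-well plates. Step 2: Expose to compound for 48 hours at 5 concentrations. Step 3: Interpolate endpoints linearly; if unreached, use highest concentration. GI50 marks 50% less growth. TGI denotes the concentration required for complete inhibition of growth.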 Where only a bound is given, the exact number is not on record here.

Some test systems named below: A498 renal; BT-549 breast; CCRF-CEM leukemia; DU-145 prostate; K-562 leukemia; MDA-MB-231 breast; OVCAR-4 ovarian; SF-539 CNS; UO-31 renal; PC-3 prostate.
What all share (test): growth of human tumour cells (NCI), 48 h

For the compound `COc1ccc(-c2nn(-c3cccc(Cl)c3)cc2C=C(C#N)C#N)cc1`, the GI50 in the assay on A498 renal is 1230 nM; in the assay with BT-549 breast, 1550 nM; in the assay on CCRF-CEM leukemia, 1430 nM; with DU-145 prostate it was 3.55 µM; in the assay with K-562 leukemia, 2010 nM; in the assay with MDA-MB-231 breast it was 2030 nM. Further, the GI50 in the assay with OVCAR-4 ovarian was 2290 nM; in the assay with SF-539 CNS, 2300 nM; in the assay with UO-31 renal, 2210 nM. The TGI worked out at 5.95 µM in the assay on A498 renal; 4.05 µM with BT-549 breast; 4.76 µM with CCRF-CEM leukemia; 90.1 µM in the assay on DU-145 prostate; 10.4 µM in the assay on K-562 leukemia; 5.14 µM in the assay with MDA-MB-231 breast. For the same compound, the TGI stood at 6.48 µM in the assay with OVCAR-4 ovarian, 5.44 µM with SF-539 CNS and 7.88 µM in the assay with UO-31 renal.

As for `Nc1ccc(-c2nc3ccc4[nH]ncc4c3c3c2CCCC3)cc1F`, the GI50 in the assay with A498 renal is 636 nM; in the assay on BT-549 breast it was 1280 nM; in the assay with CCRF-CEM leukemia, 1500 nM; in the assay with DU-145 prostate, 1.46 µM; in the assay with K-562 leukemia, 1980 nM; in the assay on MDA-MB-231 breast it was 1710 nM. Also, the GI50 is 1690 nM in the assay with OVCAR-4 ovarian, 1380 nM in the assay with SF-539 CNS and 1010 nM with UO-31 renal. The TGI is 3.24 µM in the assay on A498 renal; 7 µM with BT-549 breast; 12.2 µM in the assay with CCRF-CEM leukemia; 20.2 µM with DU-145 prostate; 22.8 µM in the assay on K-562 leukemia; 30.5 µM in the assay with MDA-MB-231 breast. The figures for the TGI in the assay on OVCAR-4 ovarian, with SF-539 CNS and in the assay on UO-31 renal were 23.5 µM, 5.85 µM and 5.53 µM, respectively.

In the case of `C/C1=C\[C@H](C)C[C@H](C)OC(=O)C[C@H](c2ccc(O)cc2)NC(=O)[C@@H](Cc2c(Br)[nH]c3ccccc23)N(C)C(=O)[C@H](C)NC(=O)[C@@H](C)C1`, the GI50 with A498 renal was 70.3 nM; in the assay with CCRF-CEM leukemia, 114 nM; with K-562 leukemia, 229 nM; in the assay on OVCAR-4 ovarian it was 96.9 nM; in the assay on SF-539 CNS, 238 nM; with UO-31 renal it was 96.8 nM. Further, the TGI with A498 renal was 0.137 µM and 0.5 µM; in the assay on BT-549 breast, 0.0669 µM; with CCRF-CEM leukemia, over 23.7 µM; in the assay with K-562 leukemia, over 49.8 µM; with MDA-MB-231 breast, 0.0741 µM; with OVCAR-4 ovarian it was 0.95 µM and 3.11 µM. In addition, the TGI in the assay with SF-539 CNS is 0.622 µM and 0.0655 µM; in the assay with UO-31 renal it was 0.351 µM and 0.238 µM.

Turning to `COc1ccc2c(c1)CCC1C2CC[C@@]2(C)C1CC[C@@]2(O)CNC(=O)/C=C/c1ccc(O)c(OC)c1` (stereo partly specified), the GI50 with A498 renal is 23000 nM; in the assay with BT-549 breast, 16200 nM; in the assay on CCRF-CEM leukemia, 932 nM; in the assay on DU-145 prostate, 36.6 µM; in the assay with K-562 leukemia, 12300 nM; in the assay with OVCAR-4 ovarian, 14900 nM. Besides, the GI50 was 12.1 µM with PC-3 prostate and 10300 nM with UO-31 renal. Also, the TGI is 54.5 µM in the assay on A498 renal; 75.7 µM in the assay with BT-549 breast; over 100 µM with CCRF-CEM leukemia; over 100 µM in the assay with DU-145 prostate; over 100 µM with K-562 leukemia; over 100 µM with OVCAR-4 ovarian. Moreover, the TGI in the assay on PC-3 prostate was 83.8 µM; in the assay on SF-539 CNS, 19.3 µM; in the assay on UO-31 renal it was over 100 µM.

On to `CCOC(=O)c1sc(-c2ccc(OS(=O)(=O)c3cccs3)c(C=O)c2)nc1C`, for which the GI50 in the assay with A498 renal is 1580 nM; with BT-549 breast it was 1680 nM; in the assay with CCRF-CEM leukemia, 2160 nM; with DU-145 prostate, 2.43 µM; in the assay on K-562 leukemia it was 574 nM; with PC-3 prostate it was 1.26 µM. Moreover, the GI50 with SF-539 CNS was 1820 nM; in the assay on UO-31 renal it was 1730 nM. The TGI in the assay with A498 renal was 3.18 µM; in the assay on BT-549 breast, 3.19 µM; in the assay with CCRF-CEM leukemia, 5.38 µM; in the assay with DU-145 prostate, 6.78 µM; in the assay on K-562 leukemia, over 100 µM; with PC-3 prostate, 4.81 µM. In addition, the results for the TGI in the assay with SF-539 CNS and with UO-31 renal were 3.42 µM and 5.13 µM, respectively.

In the case of `Nc1[nH]c(=O)ncc1F`, the TGI in the assay on A498 renal, in the assay with BT-549 breast, in the assay with DU-145 prostate, in the assay on K-562 leukemia, in the assay on OVCAR-4 ovarian and in the assay with PC-3 prostate was over 100 µM in each case. For the same compound, the TGI in the assay with SF-539 CNS and in the assay on UO-31 renal was over 100 µM in each case.

`S=c1nc(-c2ccccc2)oc(=NC2CCCCC2)n1C1CCCCC1`: the GI50 in the assay on A498 renal was 3610 nM; in the assay on CCRF-CEM leukemia it was 1750 nM; in the assay on DU-145 prostate it was 3.26 µM; with K-562 leukemia it was 5250 nM; in the assay with MDA-MB-231 breast, 3690 nM; in the assay on OVCAR-4 ovarian it was 5560 nM. The GI50 in the assay with SF-539 CNS is 5730 nM; in the assay with UO-31 renal it was over 100000 nM. Besides, the TGI was 13 µM in the assay on A498 renal; 8.87 µM with CCRF-CEM leukemia; 10.3 µM in the assay on DU-145 prostate; over 100 µM in the assay with K-562 leukemia; 15.9 µM with MDA-MB-231 breast; 61 µM in the assay with OVCAR-4 ovarian. Besides, the TGI with SF-539 CNS is 20.4 µM; in the assay on UO-31 renal it was over 100 µM.

As to `O=NC1c2cccc3cccc(c23)C1N=O` (stereo unspecified), the TGI in the assay with A498 renal is 35.8 µM; in the assay with BT-549 breast it was 15.6 µM; in the assay on CCRF-CEM leukemia it was 4.25 µM; with DU-145 prostate, over 100 µM; in the assay on K-562 leukemia, 11.7 µM; in the assay with OVCAR-4 ovarian it was 3.56 µM. In addition, the TGI in the assay on PC-3 prostate was found to be 25.4 µM; in the assay on SF-539 CNS, 26.6 µM; in the assay on UO-31 renal, 11.7 µM.
